# From PMC5011342, “A high throughput drug screening assay to identify compounds that promote oligodendrocyte differentiation using acutely dissociated and purified oligodendrocyte precursor cells” (BMC Research Notes, 2016)
# Where a name gives a salt, the structure may show the parent alone. Read-outs that look alike come from different tables or passages of the source.
# What was measured:
# expanded OPCs = test: cells; conditions: for viability at 0.1 µM / viability at 1 µM / viability at 10 µM: Rattus norvegicus, 72 h
# Method in brief: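 Expanded OPCs seeded at 10,000 cells/well in differentiation media, then exposed to NCC library compounds at 10, 1 and 0.1 µM (quadruplicate, 0.1% DMSO) for three days. Viability read as alamarBlue fluorescence (560/590 nm) after 4 h at 37 °C; tunicamycin 5 ng/ml served as toxicity control.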
# [1] = tested on: acutely dissociated and purified rat OPCs; test: Acute OL differentiation assay (MBP expression/cell, immunofluorescent image quantification); type: cell-based; conditions: for activation at 0.08 µM / activation at 0.4 µM / activation at 2 µM / activation at 10 µM: Rattus norvegicus; for activation at 0.08 µM: test compound at 0.08 uM, read-out: 0.08 uM (% Quet)
# Method in brief: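 Oligodendrocyte precursor cells were enriched from P6-P7 Sprague–Dawley rat brains by immunopanning (RAN-2 and GalC depletion, O4 selection), plated at 5000 cells/well in serum-free, mitogen-free differentiation media on PDL/laminin 96-well view plates, centrifuged at 200×g, and pre-incubated 1–2 h before test compounds were added in quadruplicate. On DIV4, cells were fixed, stained for MBP and DAPI, imaged automatically, and MBP expression per cell was quantified.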
# [2] = read-out: 0.1 µM (% DMSO), alamarBlue viability, NCC library compound at 0.1 µM, sheet "All Tox data"
# [3] = read-out: 1 µM (% DMSO), alamarBlue viability, NCC library compound at 1 µM, sheet "All Tox data"
# [4] = read-out: 10 µM (% DMSO), alamarBlue viability, NCC library compound at 10 µM, sheet "All Tox data"
# [5] = alamarBlue viability of expanded OPCs, compound at 0.1 µM, relative to DMSO control
# [6] = alamarBlue viability of expanded OPCs, compound at 1 µM, relative to DMSO control
# [7] = alamarBlue viability of expanded OPCs, compound at 10 µM, relative to DMSO control
# [8] = test compound at 0.4 uM, MBP expression relative to quetiapine, NCC library screen, sheet "All OLga data", read-out: 0.4 uM (% Quet)
# [9] = 2 uM test compound, relative to quetiapine, sheet "All OLga data", read-out: OL differentiation, 2 uM (% Quet)
# [10] = 10 uM test compound, relative to quetiapine, sheet "All OLga data", read-out: OL differentiation, 10 uM (% Quet)
# [11] = test compound at 2 uM, MBP expression relative to quetiapine, NCC library screen, sheet "All OLga data", read-out: 2 uM (% Quet)
# [12] = read-out: 0.1 µM (% DMSO), alamarBlue viability of expanded OPCs, compound at 0.1 µM, sheet All Tox data
# [13] = read-out: 1 µM (% DMSO), alamarBlue viability of expanded OPCs, compound at 1 µM, sheet All Tox data
# [14] = read-out: 10 µM (% DMSO), alamarBlue viability of expanded OPCs, compound at 10 µM, sheet All Tox data
# [15] = test compound at 2 uM, NCC library screen, sheet "All OLga data", relative to quetiapine, read-out: 2 uM (% Quet)
# [16] = test compound at 10 uM, NCC library screen, sheet "All OLga data", relative to quetiapine, read-out: 10 uM (% Quet)
# [17] = test compound at 10 uM, MBP expression relative to quetiapine, NCC library screen, sheet "All OLga data", read-out: 10 uM (% Quet)
smiles,measurement,setting,value
CC(C)/N=c1\cc2n(-c3ccc(Cl)cc3)c3ccccc3nc-2cc1Nc1ccc(Cl)cc1 [Clofazimine],viability at 0.1 µM,expanded OPCs; [2],89.9%
same,viability at 1 µM,expanded OPCs; [3],45.9%
same,viability at 10 µM,expanded OPCs; [4],19%
same,activation at 0.08 µM,"[1]; NCC library screen, sheet ""All OLga data"", relative to quetiapine",0.25%
same,activation at 0.4 µM,"[1]; test compound at 0.4 uM, NCC library screen, sheet ""All OLga data"", relative to quetiapine, read-out: 0.4 uM (% Quet)",-57.8%
CCN(CC)CCOc1ccc(C(=C(Cl)c2ccccc2)c2ccccc2)cc1 [Clomiphene],0.1 µM (% DMSO),expanded OPCs; [5],172.3 % DMSO
same,1 µM (% DMSO),expanded OPCs; [6],59.8 % DMSO
same,10 µM (% DMSO),expanded OPCs; [7],8.1 % DMSO
same,activation at 0.4 µM,[1]; [8],51.5%
CN(C)CCCN1c2ccccc2CCc2ccc(Cl)cc21 [Clomipramine],0.1 µM (% DMSO),expanded OPCs; [5],76.2 % DMSO
same,1 µM (% DMSO),expanded OPCs; [6],37.7 % DMSO
same,10 µM (% DMSO),expanded OPCs; [7],8.7 % DMSO
same,activation at 0.08 µM,"[1]; MBP expression relative to quetiapine, NCC library screen, sheet ""All OLga data""",18.5%
same,activation at 0.4 µM,[1]; [8],-59.9%
Clc1cccc(Cl)c1N=C1NCCN1 [Clonidine hydrochloride],viability at 0.1 µM,expanded OPCs; [2],91.9%
same,viability at 1 µM,expanded OPCs; [3],84.3%
same,viability at 10 µM,expanded OPCs; [4],77.2%
same,activation at 2 µM,[1]; [9],-12.5%
same,activation at 10 µM,[1]; [10],-14.3%
COC(=O)[C@H](c1ccccc1Cl)N1CCc2sccc2C1 [Clopidogrel],0.1 µM (% DMSO),expanded OPCs; [5],103.8 % DMSO
same,1 µM (% DMSO),expanded OPCs; [6],94.8 % DMSO
same,10 µM (% DMSO),expanded OPCs; [7],75.7 % DMSO
same,activation at 0.4 µM,[1]; [8],-4%
same,activation at 2 µM,[1]; [11],-15%
Clc1ccccc1C(c1ccccc1)(c1ccccc1)n1ccnc1 [Clotrimazole],viability at 0.1 µM,expanded OPCs; [12],82.3%
same,viability at 1 µM,expanded OPCs; [13],125%
same,viability at 10 µM,expanded OPCs; [14],54.9%
same,activation at 0.4 µM,"[1]; 0.4 uM test compound, relative to quetiapine, sheet ""All OLga data"", read-out: OL differentiation, 0.4 uM (% Quet)",43.9%
same,activation at 2 µM,[1]; [9],171%
CN1CCN(C2=Nc3cc(Cl)ccc3Nc3ccccc32)CC1 [Clozapine],0.1 µM (% DMSO),expanded OPCs; [5],78.7 % DMSO
same,1 µM (% DMSO),expanded OPCs; [6],61.3 % DMSO
same,10 µM (% DMSO),expanded OPCs; [7],24.6 % DMSO
same,activation at 0.4 µM,[1]; [8],-5.6%
same,activation at 2 µM,[1]; [11],-39.3%
C[C@]12C[C@H](O)[C@H]3[C@@H](CCC4=CC(=O)CC[C@@]43C)[C@@H]1CC[C@@H]2C(=O)CO [Corticosterone],viability at 0.1 µM,expanded OPCs; [2],105%
same,viability at 1 µM,expanded OPCs; [3],108%
same,viability at 10 µM,expanded OPCs; [4],102%
same,activation at 2 µM,[1]; [15],20.1%
same,activation at 10 µM,[1]; [16],17.1%
C[C@]12CCC(=O)C=C1CC[C@@H]1[C@@H]2[C@@H](O)C[C@@]2(C)[C@H]1CC[C@]2(O)C(=O)COC(=O)CCC(=O)O [Cortisol succinate],0.1 µM (% DMSO),"expanded OPCs; alamarBlue viability, NCC library compound at 0.1 µM, sheet ""All Tox data""",123.4 % DMSO
same,1 µM (% DMSO),"expanded OPCs; alamarBlue viability, NCC library compound at 1 µM, sheet ""All Tox data""",127.0 % DMSO
same,10 µM (% DMSO),"expanded OPCs; alamarBlue viability, NCC library compound at 10 µM, sheet ""All Tox data""",132.7 % DMSO
same,2 uM (% Quet),"[1]; test compound at 2 uM, NCC library screen, sheet ""All OLga data"", relative to quetiapine",3.6 % Quet
same,10 uM (% Quet),"[1]; test compound at 10 uM, NCC library screen, sheet ""All OLga data"", relative to quetiapine",21.7 % Quet
CC(=O)OCC(=O)[C@@]1(O)CC[C@H]2[C@@H]3CCC4=CC(=O)CC[C@]4(C)[C@H]3C(=O)C[C@@]21C [Cortisone acetate],0.1 µM (% DMSO),expanded OPCs; [5],89.9 % DMSO
same,1 µM (% DMSO),expanded OPCs; [6],98.1 % DMSO
same,10 µM (% DMSO),expanded OPCs; [7],86.2 % DMSO
same,activation at 2 µM,[1]; [11],8.6%
same,activation at 10 µM,[1]; [17],4.1%
C[C@]12CCC(=O)C=C1CC[C@@H]1[C@@H]2CC[C@@]2(C)[C@H]1CC[C@]2(O)C(=O)CO [Cortodoxone],viability at 0.1 µM,expanded OPCs; [2],92.3%
same,viability at 1 µM,expanded OPCs; [3],99.6%
same,viability at 10 µM,expanded OPCs; [4],96.1%
same,activation at 2 µM,[1]; [15],2.2%
same,activation at 10 µM,[1]; [16],5.5%
CN1C(=O)CC[C@H]1c1cccnc1 [Cotinine],viability at 0.1 µM,expanded OPCs; [12],88.9%
same,viability at 1 µM,expanded OPCs; [13],92%
same,viability at 10 µM,expanded OPCs; [14],98.7%
same,activation at 2 µM,[1]; [9],-8.8%
same,activation at 10 µM,[1]; [10],21.8%
O=C(O)c1cc(=O)c2c(OCC(O)COc3cccc4oc(C(=O)O)cc(=O)c34)cccc2o1 [Cromolyn Sodium],0.1 µM (% DMSO),expanded OPCs; [5],93.1 % DMSO
same,1 µM (% DMSO),expanded OPCs; [6],94.0 % DMSO
same,10 µM (% DMSO),expanded OPCs; [7],85.3 % DMSO
same,activation at 2 µM,[1]; [11],-3%
same,activation at 10 µM,[1]; [17],3.7%
O=P1(N(CCCl)CCCl)NCCCO1 (stereo not drawn) [Cyclophosphamide],0.1 µM (% DMSO),expanded OPCs; rat,90.6 % DMSO
same,1 µM (% DMSO),expanded OPCs; rat,100.6 % DMSO
same,10 µM (% DMSO),expanded OPCs; rat,97.0 % DMSO
same,activation at 2 µM,[1]; read-out: 2 uM (% Quet),16.5%
same,activation at 10 µM,[1]; read-out: 10 uM (% Quet),5.1%
